Test results from US20090227563A1, “HERBICIDAL COMPOSITIONS HAVING IMPROVED EFFECT” (Bayer CropScience AG, priority 2005, published 2009).
“And” between values parts separate entries of the source, which are not always exact repeats. Equal values may be shown once.

Assays:
Type in all cases: in vivo
LOLME = test: Glasshouse trial on activity boost, post-emergence spraying, visual rating; conditions: 5 g/ha
Description: (§1) Seeds of monocot and dicot weeds and crop plants are sown in sandy loam soil in wood fibre pots or in plastic pots, and are covered with soil and cultivated under good growth conditions in the glasshouse and also, during the vegetation period, outdoors outside the glasshouse. 2-3 weeks after sowing, the trial plants are treated at the one- to three-leaf stage. The test compounds, formulated as wettable powders (WP) or liquids (EC), are applied by spraying to the plants and the soil surface in various doses, with a water application rate of 300 l/ha (converted) and with the addition of penetrants (0.2% to 0.4%) and where appropriate an ammonium salt. After the trial plants had stood in the glasshouse for about 3 to 4 weeks under optimum growth conditions, the activity of the products was rated visually in comparison to untreated controls (activity in %, i.e. 0%=no activity or as control, 100%=all plants died).

APESV = test: as above; conditions: 5 g/ha
Description: as §1

Agropyron repens (AGRRE) = test: Plot trials (about 10 m2, 9 trials), post-emergence treatment; conditions: 5 g/ha, sum of all trials
Description: (§2) In plots measuring approximately 10 m^2, in 9 trials, post-emergence treatments were carried out in 2-3 repetitions with compound (I-1-c-1). The weed population was the natural population and/or a sown population specifically geared to the objective. The active ingredient (I-1-c-1) was delivered as an EC formulation at the stated application rates with a penetrant of the formula (III-c-1) at a concentration of 0.3 g/l in 300 l of water, as a tank mix. In the elements of the trial with ammonium sulphate (AMS) the salt was added at 1 g/l to the spray liquor. Evaluation was made on the day of maximum activity. The activities reported in Table 5 are those obtained over the sum of all the trials.
(§3) AGRRE=Agropyron repens ALOMY=Alopecurus myosuroides AVEFA=Avena fatua

Avena fatua (AVEFA) [1] = test: as above; conditions: 5 g/ha, sum of all trials
Description: as §2, §3

[2] = tested on: Alopecurus myosuroides (ALOMY); test: as above; conditions: 5 g/ha, sum of all trials
Description: as §2, §3

Avena fatua (AVEFA) [3] = test: Glasshouse trial on activity boost, post-emergence spraying, visual rating
Description: as §1
(§4) For rapeseed oil methyl ester (RME) the following tables specify concentration in % a.i. by volume for ammonium sulphate (AMS) in g/l in the spray liquor.
(§5) ALOMY=Alopecurus myosuroides AVEFA=Avena fatua LOLMU=Lolium multiflorum LOLRI=Lolium rigidum
(§6) ALOMY=Alopecurus myosuroides AVEFA=Avena fatua LOLMU=Lolium multiflorum SETVI=Setaria viridis
(§7) ALOMY=Alopecurus myosuroides AVEFA=Avena fatua LOLMU=Lolium multiflorum SETVI=Setaria viridis BROER=Bromus erectus

[4] = tested on: Alopecurus myosuroides (ALOMY); test: as above
Description: as §1, §4, §5, §6, §7

Bromus erectus (BROER) = test: as above; conditions: 5 g/ha
Description: as §1, §7

[5] = tested on: Lolium multiflorum (LOLMU); test: as above
Description: as §1, §4, §5, §6

Lolium rigidum (LOLRI) = test: as above
Description: as §1, §4, §5

Setaria viridis (SETVI) = test: as above
Description: as §1, §4, §6

[6] = Genapol LRO (0.33%) + AMS (3.3 g/l)
[7] = (III-c-1) (0.3 g/l) + AMS (1 g/l)
[8] = 5 g/ha, Genapol LRO (0.33%) + AMS (3.3 g/l)
[9] = 50 g/ha, RME (0.25%) + AMS (6.6 g/l)
[10] = 25 g/ha, RME (0.25%) + AMS (3.3 g/l)
[11] = 50 g/ha, RME (0.25%) + AMS (3.3 g/l)
[12] = 12.5 g/ha, RME (0.25%) + AMS (3.3 g/l)

CCOC(=O)OC1=C(c2c(CC)cc(Cl)cc2OC)C(=O)NC12CCC(OC)CC2 (centres unmarked) [I-1-c-1]
Activity (LOLME; Genapol LRO (0.33%)): 86%
Activity (LOLME; [6]): 97%
Activity (APESV; Genapol LRO (0.33%)): 93%
Activity (APESV; [6]): 97%
Activity (Agropyron repens (AGRRE); [7]): 90%
Activity (Agropyron repens (AGRRE); (III-c-1) (0.3 g/l)): 80%
Activity (Avena fatua (AVEFA) [1]; [7]): 90%
Activity (Avena fatua (AVEFA) [1]; (III-c-1) (0.3 g/l)): 80%
Activity [2, 7]: 72%
Activity ([2]; (III-c-1) (0.3 g/l)): 67%
Activity (Avena fatua (AVEFA) [3]; 5 g/ha, Genapol LRO (0.33%)): 75%
Activity (Avena fatua (AVEFA) [3]; [8]): 100%
Activity ([4]; 5 g/ha, Genapol LRO (0.33%)): 73%
Activity [4, 8]: 99%
Activity (Bromus erectus (BROER); Genapol LRO (0.33%)): 73%
Activity (Bromus erectus (BROER); [6]): 97%

CCc1cc(-c2ccc(Cl)cc2)cc(C)c1C1=C(O)C2(CCC(OC)CC2)OC1=O (centres unmarked) [I-2-a-1]
Activity ([5]; 25 g/ha, RME (0.25%)): 30%
Activity ([5]; 50 g/ha, RME (0.25%)): 70%
Activity (Lolium rigidum (LOLRI); 25 g/ha, RME (0.25%)): 20%
Activity (Lolium rigidum (LOLRI); 50 g/ha, RME (0.25%)): 40%
Activity (Lolium rigidum (LOLRI); [9]): 80% and 40%
Activity ([4]; 50 g/ha, RME (0.25%)): 30%
Activity [4, 9]: 70%
Activity ([4]; 100 g/ha, RME (0.25%)): 30%
Activity ([4]; 100 g/ha, RME (0.25%) + AMS (6.6 g/l)): 70%

CC1=CC(=O)C(c2c(C)cc(C)cc2C)C(=O)O1 (centres unmarked) [I-4-a-1]
Activity (Setaria viridis (SETVI); 25 g/ha, RME (0.25%)): 0%
Activity (Setaria viridis (SETVI); [10]): 20%
Activity (Setaria viridis (SETVI); 50 g/ha, RME (0.25%)): 0%
Activity (Setaria viridis (SETVI); [11]): 90%
Activity (Setaria viridis (SETVI); 100 g/ha, RME (0.25%)): 0%
Activity (Setaria viridis (SETVI); 100 g/ha, RME (0.25%) + AMS (3.3 g/l)): 90%

CCc1cc(C)cc(C)c1C1C(=O)CC2(CCCCC2)C1=O (centres unmarked) [I-6-a-1]
Activity (Setaria viridis (SETVI); 12.5 g/ha, RME (0.25%)): 0%
Activity (Setaria viridis (SETVI); [12]): 25%
Activity (Setaria viridis (SETVI); 25 g/ha, RME (0.25%)): 15%
Activity (Setaria viridis (SETVI); [10]): 90%
Activity (Setaria viridis (SETVI); 50 g/ha, RME (0.25%)): 25%
Activity (Setaria viridis (SETVI); [11]): 90%

CCc1cc(C)cc(CC)c1C1C(=O)[C@H]2CCCC[C@@H]2C1=O [I-6-a-2]
Activity ([5]; 12.5 g/ha, RME (0.25%)): 5%
Activity [5, 12]: 97%
Activity ([5]; 25 g/ha, RME (0.25%)): 20%
Activity [5, 10]: 100%
Activity (Avena fatua (AVEFA) [3]; 12.5 g/ha, RME (0.25%)): 10%
Activity (Avena fatua (AVEFA) [3]; [12]): 93%
Activity (Avena fatua (AVEFA) [3]; 25 g/ha, RME (0.25%)): 35%
Activity (Avena fatua (AVEFA) [3]; [10]): 99%
Activity ([4]; 12.5 g/ha, RME (0.25%)): 10%
Activity [4, 12]: 75%
Activity ([4]; 25 g/ha, RME (0.25%)): 30%
Activity [4, 10]: 93%

CCc1cc(Cl)cc(OC)c1-c1c(O)n2n(c1=O)CCCC2 [I-8-a-1]
Activity ([5]; 12.5 g/ha, RME (0.25%)): 10%
Activity [5, 12]: 70%
Activity ([5]; 25 g/ha, RME (0.25%)): 80%
Activity [5, 10]: 95%
Activity (Avena fatua (AVEFA) [3]; 12.5 g/ha, RME (0.25%)): 30%
Activity (Avena fatua (AVEFA) [3]; [12]): 70%
Activity (Avena fatua (AVEFA) [3]; 25 g/ha, RME (0.25%)): 40%
Activity (Avena fatua (AVEFA) [3]; [10]): 80%
Activity ([4]; 12.5 g/ha, RME (0.25%)): 5%
Activity [4, 12]: 50%
Activity ([4]; 25 g/ha, RME (0.25%)): 50%
Activity [4, 10]: 70%

CCc1cc(C)cc(CC)c1-c1c(OC(=O)C(C)(C)C)n2n(c1=O)CCOCC2 [I-8-b-1]
Activity ([5]; 25 g/ha, RME (0.25%)): 60%
Activity [5, 10]: 93%
Activity ([5]; 50 g/ha, RME (0.25%)): 97%
Activity [5, 11]: 100%
Activity (Avena fatua (AVEFA) [3]; 25 g/ha, RME (0.25%)): 30%
Activity (Avena fatua (AVEFA) [3]; [10]): 80%
Activity (Avena fatua (AVEFA) [3]; 50 g/ha, RME (0.25%)): 70%
Activity (Avena fatua (AVEFA) [3]; 50 g/ha, RME (0.25%) + AMS (0.33 g/l)): 90%
Activity (Avena fatua (AVEFA) [3]; 50 g/ha, RME (0.25%) + AMS (1 g/l)): 95%
Activity (Avena fatua (AVEFA) [3]; [11]): 97%
Activity ([4]; 25 g/ha, RME (0.25%)): 20%
Activity ([4]; 25 g/ha, RME (0.25%) + AMS (0.33 g/l)): 70%
Activity ([4]; 25 g/ha, RME (0.25%) + AMS (1 g/l)): 50%
Activity [4, 10]: 80%
Activity ([4]; 50 g/ha, RME (0.25%)): 90%
Activity [4, 11]: 95%
